Measurements: patent publication US9517214B2, “Fat-based food products” (IP Science Limited, priority 2011, dated 2016)

Columns and labels:
[1] = system: clinically healthy volunteers with hypercholesterolaemia; test: Serum lipids (TC, TG, HDL, LDL) in trial of lycopene, butter and L-Butter; type: in vivo, human; details: after one week of administration of 7 mg of lycopene
Experimental: (§1) Clinically Healthy Volunteers with Hypercholesterolaemia
(§2) Commercially available butter (President, Lactalis) was melted at 40° C. The melted butter was blended with tomato oleoresin, containing 15% of lycopene (Lyc-O-Mato), in the ratio of […] of oleoresin to 30 g of the butter in a thermo-controlled mixer. The mixture was blended for 10 minutes and cooled down to the room temperature. The butter was then divided into daily 30 g portions. Butter was stored at 4° C. until use. Freshly made batches of the L-Butter were made weekly.
(§3) Each portion of 30 g butter contained 47.1 mg of tomato oleoresin or about 7 mg of lycopene.
(§4) The melting and mixing procedures were performed as described above using the same commercially available butter, but instead of tomato oleoresin, sunflower oil (Flora™) was used.
(§5) 47.1 mg of tomato oleoresin was pre-dissolved in ethanol and mixed with Whey Protein as described in Richelle et al (2002) J. Nutr 132 404-408, WO01/091588 and US2002/01072992. Then the mixture was placed into gelatine capsules.
(§6) 18 clinically healthy volunteers, 9 males and 9 females, age 45-69, were recruited for this study.
(§7) • elevated total serum cholesterol above 200 mg/dL and/or triglycerides above 150 mg/dL, • all patients were naive for any lipid-lowering medications, • willing participate in the study. […]
(§8) All blood samples were coded. Their lab analysis and reading of the results were blinded. […]

[2] = daily consumption of 6-10 mg lycopene; cited from earlier work
[3] = system: clinically healthy volunteers with hypercholesterolaemia; test: Antibody inflammatory marker Px-IgG in the same trial; type: in vivo, human; details: 7 mg lycopene daily, capsules; Baseline; individual volunteers
Experimental: as §1, §2, §3, §4, §5, §6, §7, §8

CC(C)=CCC/C(C)=C/C=C/C(C)=C/C=C/C(C)=C/C=C/C=C(C)/C=C/C=C(C)/C=C/C=C(\C)CCC=C(C)C [Lycopene]
changes in levels of elevated cholesterol, triglycerides and markers of oxidative damage or inflammation [1]: not any changes
effect on cholesterol or other blood lipids [2]: no effect
Px-IgG [3]: 0.765 U/ml
